Measurements taken from US20250302904A1, “EXTRACTS IN EUTECTIC SOLVENT OF OLIVE OIL POLYPHENOLS, COMPOSITIONS, USES AND METHODS OF PREPARATION THEREOF” (ACTIVE-ITALIA S.R.L., priority 2022, published 2025).

What was measured:
[1] = Stability test of oleocanthal and oleacein in NaDES or water, 30 days; assay type: physicochemical; details: after 30 days, 10 mM
Description: Oleocanthal and oleacein were dissolved at a final concentration equal to 10 mM in water or in NaDES (Betaine/Propylene glycol, Bet/Prop) and subjected to stability test.

[2] = Additional stability tests of oleocanthal and oleacein in water or formulated product (NaDES), 6 months; assay type: physicochemical; details: for degradation with respect to control at time zero: formulated product (NaDES betaine/propylene glycol 1:3.3); for degradation: in water
Description: FIG. 4. Stability over time (6 months) of oleacein and oleocanthal at 25° C. and 40° C. in water and in the formulated product (serum NaDES diluted in almond oil). The values represent standard averages and deviations (N=3). The significance tests were performed with one-way ANOVA (p<=0.05).
Additional stability tests of oleocanthal and oleacein in water or in NaDES (that is in NaDES mixture comprising betaine/propylene glycol 1:3.3) were performed for 6 months, at different temperatures. The results obtained from the stability tests over time (6 months) of oleacein and oleocanthal, at two different temperatures (25° C. and 40° C. (accelerated stability)), in water and in the formulated product, are shown in FIG. 4. […] In particular, in water, after six months at 25° C., there is a degradation of oleacein and oleocanthal by about 70% and l′80%, respectively. At 40° C. the degradation results to be still more evident: about 90% for oleacein and 80% for oleocanthal. On the contrary, in the product formulated according to the present invention (NaDES betaine/propylene glycol 1:3.3), the degradation of the active principles, with respect to control at time zero, results to be modest at 25° C. and by about 50% and 30% for oleacein and oleocanthal respectively at 40° C.

[3] = NaDES betaine/propylene glycol (1:3.3), 25° C.
[4] = NaDES betaine/propylene glycol (1:3.3), 40° C.

## C/C=C(/C=O)[C@@H](CC=O)CC(=O)OCCc1ccc(O)cc1 [Oleocanthal]
[1]; H2O, 25° C.
  % loss: 7.5%
[1]; H2O, 40° C.
  % loss: 32.6%
[1]; [3]
  % loss: ~0%
[1]; [4]
  % loss: 1.4%
[2]; six months at 25° C.
  degradation with respect to control at time zero: modest
[2]; six months at 40° C.
  degradation with respect to control at time zero: ~30%
  degradation: ~80%
[2]; after six months at 25° C.
  degradation: ~80%

## CC=C(C=O)C(CC=O)CC(=O)OCCc1ccc(O)c(O)c1 (stereo in doubt) [Oleacein]
[1]; H2O, 25° C.
  % loss: 8.1%
[1]; H2O, 40° C.
  % loss: 38.1%
[1]; [3]
  % loss: ~0%
[1]; [4]
  % loss: 4.5%
[2]; six months at 25° C.
  degradation with respect to control at time zero: modest
[2]; six months at 40° C.
  degradation with respect to control at time zero: about 50%
  degradation: about 90%
[2]; after six months at 25° C.
  degradation: about 70%
